# Laboratory results: US20220184037A1, “PHARMACEUTICAL AGENTS TARGETING CANCER STEM CELLS” (THE JOHNS HOPKINS UNIVERSITY, priority 2020, published 2022)
# Experiments:
# Type in all cases: cell-based, human
# SOX2 = experiment: Western blotting / flow cytometry of SOX2 expression in bladder cancer cells
# Method: (§1) Whole cell lysates were extracted using RIPA buffer (Thermo Scientific) supplemented with 10 μL/mL Halt™ Protease Inhibitor Cocktail Kit (Life Technologies) and 30 μL/mL Halt™ Phosphatase Inhibitor Cocktail Kit (Life Technologies). The protein concentrations were determined using a Pierce™ BCA Protein Assay Kit (Life Technologies), and the protein were separated on. NuPAGE 4-12% Bis-Tris Gel (Life Technologies) according to the manufacturer's protocol. COX2 (D5H5), NANOG (D73G4), OCT4 (D7O5Z), CD133 (A3G6K), Snail (C15D3), ZEBI (D80D3), Vimentin (D21H3), CDH2 (D4R1H), CDH1 (24E10), p-EGFR (D7A5), EGFR (D38B1), p-AKT (D9E), AKT (cat #, 9272), p-ERK (D13.14.4E), ERK (137F5), p-YAP1 (D9W2I), p-Src (cat #, 2101), Src (36D10), DNMT1 (D63A6), DNMT3A (D23G1), and DNMT3B (D7070) antibodies were obtained from Cell Signaling Technology (Danvers, Mass., USA), except for SOX2 (EPR3131; Abeam, Cambridge, USA), YAP1 (ab52771; Abeam), CD24 (cat #, AF5247-SP; R&D Systems, Minneapolis USA) and β-actin (A2228; Sigma-Aldrich). Secondary horseradish peroxidase (HRP)-conjugated antibodies were obtained from Cell Signaling Technology, and chemiluminescent detection of HRP-labeled antibodies was performed using Amersham ECL Prime Western Blotting Detection Reagent (GE Healthcare, Piscataway, USA). As loading control, β-actin was used.
# For extracellular staining, cells (1×10^6/100 μL stain buffer) were incubated with PE-Vio770-conjugated anti-human CD133 (293C3; Miltenyi Biotec, Auburn, USA) or PE-conjugated anti-human CD24 antibody (cat #, 560991; BD Biosciences) for 30 min at 4° C. in dark. PE-Vio770-conjugated anti-IgG1κ Isotype (cat #, 130-098-563; Miltenyi Biotec) and PE-conjugated IgG2a, κ Isotype (cat #, 555574; BD Biosciences) were used as control for CD133 and CD24 staining, respectively. Staining for intracellular SOX2 was carried out using the BD Cytofix/Cytopem Fixation/Permeabilization Kit (BD Biosciences) according to manufacturer's protocol. The cells were incubated with Alexa Fluor 647-conjugated anti-SOX2 antibody (cat #, 560302; BD Biosciences) for 40 min at 4° C. in dark. Alexa Fluor 647-conjugated anti-IgG2a, κ Isotype (cat #, 558053; BD Biosciences) was used as control. Data were acquired on a BD FACSCalibur flow cytometer (BD Biosciences) using BD CellQuest Pro software (BD Biosciences) and analyzed with FlowJo software v10.1 (Tree Star, Ashland, USA).
# [1] = test system: bladder cancer cells (urothelial CSCs); experiment: Sphere formation assay
# Method: Sphere formation was induced by culturing cells (2×10^4/well) in […] F12 50/50 Mix (Mediatech) supplemented with B-27 (Life Technologies), 20 ng/mL FGF-basic (Peprotech), 20 ng/mL EGF (Peprotech). Cell culture was performed in ultra-low attachment 6 well plates (Corning, Lowell, USA) for 10 days. The medium was replaced every other day. Sphere formation was evaluated using the inverted phase-contrast microscope, and single sphere with a diameter larger than 100 gm was counted using NIS-Elements Microscope Imaging Software. To redifferentiate spheres, spheres were plated in standard growth medium with 10% FBS in dishes supporting cell attachment, and incubated for 7 days. For self-renewal assay, primary spheres were collected by gentle centrifugation (5 min at 400×g), dissociated with Stempro Accutase Cell Dissociation Reagent (Life Technologies), and mechanically disrupted with a pipette. The cell suspension was sieved through 40 μm cell strainer cap filter to achieve a single-cell suspension, and then equal numbers of alive cells were plated in ultralow attachment plates to generate the second spheres. Again, spheres were counted on day 14 and digested to generate the third Spheres. All the experiments were performed in triplicate and repeated at least three times.
# YAP1 = experiment: Western blotting of YAP1 expression in bladder cancer cells
# Method: as §1
# let-7 = let-7 expression by Q-RT-PCR; settings: parental or spheroid bladder cancer cells
# Method: Total RNA from cell lines was isolated using the RNeasy Plus Mini kit (Qiagen, Valencia, USA) according to the manufacturer's protocol. Total RNA extraction from bladder tissue was performed with the QIAzol Lysis Reagent (Qiagen) followed by phenol extraction and ethanol precipitation. Total RNA was eluted in DEPC treated water and stored at −80 ° C. Total RNA extraction from urine was performed using the MirVana miRNA Isolation Kit (Ambion, Austin, USA). These total RNA were converted to cDNA using the SuperScript III First-Strand Synthesis System (Life technologies, Carlsbad, USA), which was then used as a template for Q-RT-PCR. Q-RT-PCR was performed using the Fast SYBR Green Master Mix (Thermo Fisher Scientific, Waltham, USA) on a 7900HT Fast Real-Time PCR System (Life technologies) in triplicate. Micro RNA (miRNA) extraction was performed using the MirVana miRNA Isolation Kit, and was reverse transcribed using TaqMan reverse transcription kit (Applied Biosystems, Foster City, USA) and miRNA-specific RT primers provided with TaqMan microRNA assays (Applied Biosystems). Q-RT-PCR for miRNAs was performed using the TaqMan Universal PCR Master Mix according to the manufacturer's protocol. SDS software (Applied Biosystems) was used to determine cycle threshold (Ct) values. Expression level was quantified relative to β-actin for mRNA and RNU6B for miRNA using the 2-ΔΔCt method (12).
# For demethylation, cells (1×10^6/T-75 flask) were treated with […] of the demethylating agent 5-Aza-dC (Sigma) dissolved in 50% acetic acid or were mock-treated with phosphate buffered saline (PBS) including the same amount of acetic acid every 24 hours for 5 days. When combined with the histone deacetylase inhibitor TSA (Sigma), 300 nmol/L TSA was added to the medium for the final 24 hours.
# [2] = basal-type cells, 1 μM erlotinib
Structure (SMILES),level of SOX2 expression over time (SOX2; [2]),"number of spheres ([1]; basal-type cells, 1 μM erlotinib for 72 hours)",YAP1 expression (YAP1; [2]),"levels of YAP1 expression (YAP1; non-basal-type cells, erlotinib)","SOX2 expression (SOX2; COX2 inhibitor or EP4 antagonist alone (FIG. 2A-B, S7))","erlotinib-increased SOX2 expression (SOX2; basal-type cells, COX2 inhibitor added to erlotinib)",sphere-forming ability / sphere formation ([1]; COX2 inhibitor or EP4 antagonist alone),"erlotinib-increased sphere formation ([1]; basal-type cells, COX2 inhibitor added to erlotinib (10 μM celecoxib, 72 hours))",induction of YAP1 expression (YAP1; COX2 inhibitor added to erlotinib),let-7 expression (let-7)
"C#Cc1cccc(Nc2ncnc3cc(OCCOC)c(OCCOC)cc23)c1 [erlotinib, Erlotinib]",decreased at 1 hour after treatment with erlotinib and then gradually increased,enriched number of spheres,continuously decreased YAP1 expression,did not affect,–,–,–,–,–,–
"Cc1ccc(-c2cc(C(F)(F)F)nn2-c2ccc(S(N)(=O)=O)cc2)cc1 [celecoxib, Celecoxib]",–,–,–,–,SOX2 downregulation,impaired,repressed,impaired,no longer able to induce YAP1 expression,restoration of let-7 expression
